Data from patent US20190290620A1, “APPLICATIONS OF NOVEL THIAZOLE DERIVATIVE IN TREATING INFLAMMATORY BOWEL DISEASES” (EAST CHINA UNIVERSITY OF SCIENCE AND TECHNOLOGY, priority 2016, published 2019).
Marks after values point to notes of the source that are not given here.

System: TNBS-induced ulcerative colitis model mice
Test: TNBS-induced mice ulcerative colitis model
Type: in vivo, BALB/c male mice
Set-up: key to Scores of gross morphological damages: 0 = no adhesion/ulcer/inflammation, 4+ = severe ulcers (+1 per cm)
Conditions: compound 20 mg/kg; for Length of the colon / Weight of the colon: 24 hours after last administration; for weight/length ratio (average) of colon: colon weight (g) / length (cm); for Score (body weight index according to the disease activity index, DAI): 0-4 points by weight decrease; for Ratio of weight loss: ig daily for 7 days from day of modeling, positive drug sulfasalazine 500 mg/kg, 10 mice per group
Experimental: BALB/c male mice (each 18-22 g) of SPF level were purchased from Shanghai Slack Laboratory Animal Co., Ltd. and were used in experiments after adaptive feeding for 7 days.
BALB/c male mice were kept in an animal cage (daylight and darkness of 12 hours, respectively) at a temperature of 20-25° C. and relative humidity of 50-60%, free access to food and water.
Mice were randomly divided into normal control group, trinitrobenzenesulfonic acid (TNBS) model group, drug treatment group and positive drug control group (sulfasalazine 500 mg/kg).
All of the mice in model group and administration group were shaved in the abdomen (area 2×2 cm) and sensitized with 1% TNBS (dissolved in 50% ethanol). On the 7th day, the mice were fasted, but not water. After 24 hours, the mice were anesthetized through intraperitoneal injection of 0.1 ml of 10% chloral hydrate and 2% TNBS was used for lavation to establish a mouse model of ulcerative colitis. A gavage needle for rat was inserted into the colon of a mouse, the tip of the needle was about 3˜3.5 cm away from the anus, and 0.1 ml of modeling solution (5% TNBS and deionized water were mixed at a volume ratio of 4:1, and the obtained solution was mixed with absolute ethanol at a volume ratio of 1:1, so as to obtain the modeling solution) was injected. The mice were put back into the cage and wake up naturally. The mice in the normal control group were injected with 0.12 ml of solvent (50% ethanol solution) by the same manner.
Administration was started on the day of modeling (using 0.5% sodium carboxymethylcellulose, CMC-Na) for 7 consecutive days.
At 24 hours after the last administration, the mice were sacrificed by cervical dislocation, the peritoneum was cut open, and the whole colon was taken. The intestine was cut longitudinally along the mesenteric margin, rinsed with ice physiological saline, placed on ice, and the pathological changes of the colon were observed. The fat and mesentery were removed, the water was blotted with filter paper, the weight of the colon was weighed and the length was measured. The colon was fixed in 4% formaldehyde for more than 24 hours, dehydrated, paraffin-embedded and H&E stained, and the pathological sections were observed.
The mice were observed and recorded daily for mental state, fur color, and activities. The mice was weighed daily and observed for the stool traits. The body weight index according to the disease activity index (DAI) is as follows:
After the colon of a mouse was removed, the weight of the colon was measured with a precision electronic balance, the length was measured with a vernier caliper, and the weight/length ratio of the colon was calculated.
The criteria for scores were: no adhesion, no ulcer, no inflammation, 0 points; mild adhesion, local congestion, no ulcer, 1 point; severe adhesion, 1 ulcer (area less than 1 cm), no obvious inflammation, 2 points; more than 1 ulcers (area less than 1 cm) with inflammation, 3 points; 2 severe ulcers (area greater than 1 cm) with inflammation, 4 points; and 1 point for each 1 cm increase in ulcer area.
Pathological changes of colon tissue were observed under light microscope, and the scores were recorded. The criteria for scores are as follows:
1) Epithelial cells: normal morphology, 0 points; loss of goblet cells, 1 point; large loss of goblet cells, 2 points; loss of crypt cells, 3 points; large loss of crypt cells, 4 points.
2) Infiltration of inflammatory cells: no infiltration, 0 points; infiltration in the basal layer of the crypt, 1 point; infiltration to the muscular layer of the mucosa, 2 points; infiltration to the muscular layer of the mucosa with mucosal thickening and obvious edema, 3 points; infiltration to the submucosal layer, 4 points.
Data were expressed as […] (mean±S.E.M.), data were analyzed using SPSS statistical software, and one-way ANOVA and Tukey's HSD post hoc test were used for comparison between groups. p<0.05 was considered statistically significant.

[1] = ig 7 days, sulfasalazine 500 mg/kg

Q: Which results are given for `Cc1sc(N/N=C/c2ccccc2C(=O)O)nc1-c1ccccc1Cl` [Compound 15, (E)-5-methyl-4-(2-chlorophenyl)-2-(2-carboxylbenzylidenehydrazino)thiazole]?
A: Length of the colon [1]: 5.546 ± 0.402 cm; Weight of the colon [1]: 0.163 ± 0.023 g; weight/length ratio (average) of colon [1]: 0.029#

Q: For `O=C(O)c1cc(C(F)(F)F)ccc1/C=N/Nc1nc(-c2ccccc2Cl)cs1` [Compound 8-1], which “Score (body weight index according to the disease activity index, DAI)” value [1] is on record?
A: The value was 1.

Q: And the “Ratio of weight loss” value?
A: The value was 3.72 ± 1.60.

Q: How did the “Score (body weight index according to the disease activity index, DAI)” value [1] turn out when `Cc1sc(N(C)/N=C/c2ccccc2C(=O)O)nc1-c1ccccc1` [Compound 12, (E)-5-methyl-4-phenyl-2-[11-methyl-2-(2-carboxybenzylidene)hydrazino]thiazole] was run?
A: The value was 1.

Q: What about the “Length of the colon” value [1] of the same compound?
A: The value was 5.075 ± 0.468 cm.

Q: What about the “Weight of the colon” value [1] of the same compound?
A: Its value is 0.154 ± 0.012 g.

Q: And the “weight/length ratio (average) of colon” value [1]?
A: The value was 0.030#.

Q: And the “Ratio of weight loss” value?
A: Its value is 2.33 ± 2.99.

Q: With `CCCN(/N=C/c1ccccc1C(=O)O)c1nc(-c2ccccc2Cl)cs1` [Compound 3, (E)-4-(2-chlorophenyl)-2-[1-propyl-2-(2-carboxybenzylidene)hydrazino]thiazole] as the compound, how does the “Score (body weight index according to the disease activity index, DAI)” value [1] read?
A: The value was 2.

Q: What about the “Length of the colon” value [1] of the same compound?
A: Its value is 5.699 ± 0.368 cm.

Q: And the “Weight of the colon” value [1]?
A: Its value is 0.159 ± 0.023 g.

Q: What about the “weight/length ratio (average) of colon” value [1] of the same compound?
A: The value was 0.028#.

Q: And the “Ratio of weight loss” value?
A: Its value is 4.26 ± 4.65.

Q: How did the “Score (body weight index according to the disease activity index, DAI)” value [1] turn out when `CCN(/N=C/c1ccccc1C(=O)O)c1nc(-c2ccccc2Cl)cs1` [Compound 2, (E)-4-(2-chlorophenyl)-2-[1-ethyl-2-(2-carboxybenzylidene)hydrazino]thiazole] was run?
A: The value was 1.

Q: And the Histopathology scores (H&E colon sections, epithelial cells and inflammatory cell infiltration points, ig 7 days, sulfasalazine 500 mg/kg)?
A: The Histopathology scores was 3.10 ± 0.55.

Q: And the “Scores of gross morphological damages” value (colon adhesion, ulceration, inflammation points, ig 7 days, sulfasalazine 500 mg/kg)?
A: The value was 3.37 ± 0.60.

Q: And the “Ratio of weight loss” value?
A: The value was 1.22 ± 3.68.
